From patent publication US20230181581A1, “CIRCULATING B CELL SUBPOPULATIONS IN INDOLENT B CELL LYMPHOMA” (Alexion Pharmaceuticals, Inc., priority 2020, published 2023)
Values joined by “and” are separate entries in the source; they are usually repeats but may differ in a detail not shown here. Identical values can stand only once. “Also recorded” adds a separate entry of the source.

Experiments:
Assay type in all cases: in vivo, human
[1] = system: patients with indolent B cell lymphoma (iNHL); test: Phase IIa study: clinical response (best response) to single agent cerdulatinib in r/r iNHL patients grouped by baseline B cell subsets; settings: 30 mg BID
Description: (§1) This example describes a phase IIa study designed to determine the safety, efficacy, pharmacokinetics, and pharmacodynamics of cerdulatinib at the selected phase II dose of 30 mg BID, dosed in 28 day cycles, in patients with r/r B or T cell malignancies.
(§2) Up to 50 patients were enrolled in 5 cohorts; aggressive lymphoma, iNHL, CLL/SLL, PTCL (all receiving single agent cerdulatinib), and iNHL with cerdulatinib in combination with anti-CD20 therapy. Patients remained on drug until discontinuation due to progressive disease (PD), adverse event (AE), withdrawal of consent (WC), or at the discretion of the treating physician.
(§3) Forty patients with iNHL were enrolled in a cohort receiving single agent cerdulatinib. From this cohort, 30 ml of whole blood was collected from each patient at pre-dose at baseline (C1), cycle 2 day 1 (C2), cycle 3 day 1 (C3), and cycle 6 day 1 (C6) in 10 ml mononuclear cell protection tubes (CPT tubes, BD Bioscience, San Jose, CA) and immediately centrifuged to separate mononuclear cells from plasma and red blood cells at each clinical site. At each time point, tubes were shipped for same day delivery to Caprion Biosciences, Montreal Canada, for preparation and live cell freezing of peripheral blood mononuclear cells (PBMC) by ficoll gradient centrifugation using standard procedures. Banked PBMC’s were stored at -80° C. until 5-8 patient samples through cycle 6 were obtained to enable batched flow cytometry analysis of B cell subsets for each patient over time.
A PCA analysis of the data was performed to identify subgroups of patients characterized by a common B cell phenotype. Subsequent analysis of the results of the PCA by hierarchical clustering was performed.

[2] = system: patients with indolent B cell lymphoma (iNHL); test: Phase IIa study: patient disposition (discontinuation, treatment duration) on single agent cerdulatinib; settings: r/r iNHL, 30 mg BID
Description: as §1
as §2, with “physician. […]” for “physician.”

[3] = system: circulating B cell subsets; test: B cell subpopulation analysis of patient PBMC by flow cytometry over time on cerdulatinib
Description: as §3
PBMC’s were thawed and rested overnight in RPMI containing 10% fetal bovine serum. Cells were then stained with a cocktail containing Aqua live/dead cell stain (Life Technologies, Carlsbad, CA), and the following antibodies all obtained from BD Biosciences; CD19 PE-Cy7, CD20 BUV395, HLA-DR APC-Cy7, CD27 BV786, IgD PE, CD10 BV650, CD38 BV711, CD138 BV421, IgG BV605, and IgM APC. Cells were stained for 1 hour at room temperature, washed in phosphate buffered saline containing 0.5% bovine serum albumin, and subjected to flow cytometry using the BD Cantos. A maximum number of events was collected, the median number of total B cells collected was 18,789. The B cell subset gating strategy is described in FIG. 1.
Live B cells were then gated based on aqua viability stain and CD19. IgD and CD27 delineated double negative (DN), naïve, switched memory (SM), and non-switched memory (NSM). Within the naive cell area transitional B cells were identified based on CD10 expression. Within the SM area IgG and IgM switched B cells were identified. Plasma cells were identified based on high CD27 expression and CD138. Percent lymphocytes of total live PBMC’s were also calculated. All gating and calculation of B cell subset frequencies either from the total B cell gate or the immediate parent gate of a B cell subset were calculated using Flow Jo software (Tree Star, Inc., Ashland, OR), and analyzed.

[4] = iNHL patients, baseline (C1) vs cycles 2, 3, 6, FIG. 5A

SMILES: CCS(=O)(=O)N1CCN(c2ccc(Nc3ncc(C(N)=O)c(NC4CC4)n3)cc2)CC1 [cerdulatinib, 4-(cyclopropylamino)-2-((4-(4-(ethylsulfonyl)piperazin-1-yl)phenyl)amino)pyrimidine-5-carboxamide]
- Best Response CR, number of patients ([1]; G1 (N=9)): 1.00
- Best Response CR, percent of patients ([1]; G1 (N=9)): 11.1%
- Best Response PD, number of patients ([1]; G1 (N=9)): 1.00
- Best Response PD, percent of patients ([1]; G1 (N=9)): 11.1%
- Best Response PR, number of patients ([1]; G1 (N=9)): 1.00
- Best Response PR, percent of patients ([1]; G1 (N=9)): 11.1%
- Best Response SD, number of patients ([1]; G1 (N=9)): 2.00
- Best Response SD, percent of patients ([1]; G1 (N=9)): 22.2%
- ORR (overall response rate), percent of patients ([1]; G1 (N=9)): 22% and 22.2%
- ORR + clinical benefit, number of patients ([1]; G1 (N=9)): 4.00
- ORR + clinical benefit, percent of patients ([1]; G1 (N=9)): 44.4%
- ORR, number of patients ([1]; G1 (N=9)): 2.00
- Best Response CR, number of patients ([1]; G2 (N=16)): 5.00
- Best Response CR, percent of patients ([1]; G2 (N=16)): 31.3%
- Best Response PD, number of patients ([1]; G2 (N=16)): 0 (0%)
- Best Response PD, percent of patients ([1]; G2 (N=16)): 0 (0%)
- Best Response PR, number of patients ([1]; G2 (N=16)): 8.00
- Best Response PR, percent of patients ([1]; G2 (N=16)): 50.0%
- Best Response SD, number of patients ([1]; G2 (N=16)): 1.00
- Best Response SD, percent of patients ([1]; G2 (N=16)): 6.3%
- ORR (overall response rate), percent of patients ([1]; G2 (N=16)): 81% and 81.3%
- ORR + clinical benefit, number of patients ([1]; G2 (N=16)): 14.0
- ORR + clinical benefit, percent of patients ([1]; G2 (N=16)): 87.5%
- ORR, number of patients ([1]; G2 (N=16)): 13.0
- Best Response CR, number of patients ([1]; G2 + G3 (N=29)): 6.00
- Best Response CR, percent of patients ([1]; G2 + G3 (N=29)): 20.7%
- Best Response PD, number of patients ([1]; G2 + G3 (N=29)): 3.00
- Best Response PD, percent of patients ([1]; G2 + G3 (N=29)): 10.3%
- Best Response PR, number of patients ([1]; G2 + G3 (N=29)): 14.0
- Best Response PR, percent of patients ([1]; G2 + G3 (N=29)): 48.3%
- Best Response SD, number of patients ([1]; G2 + G3 (N=29)): 4.00
- Best Response SD, percent of patients ([1]; G2 + G3 (N=29)): 13.8%
- ORR (overall response rate), percent of patients ([1]; G2 + G3 (N=29)): 69.0%
- ORR + clinical benefit, number of patients ([1]; G2 + G3 (N=29)): 24.0
- ORR + clinical benefit, percent of patients ([1]; G2 + G3 (N=29)): 82.8%
- ORR, number of patients ([1]; G2 + G3 (N=29)): 20.0
- Best Response CR, number of patients ([1]; G3 (N=13)): 1.00
- Best Response CR, percent of patients ([1]; G3 (N=13)): 7.7%
- Best Response PD, number of patients ([1]; G3 (N=13)): 3.00
- Best Response PD, percent of patients ([1]; G3 (N=13)): 23.1%
- Best Response PR, number of patients ([1]; G3 (N=13)): 6.00
- Best Response PR, percent of patients ([1]; G3 (N=13)): 46.2%
- Best Response SD, number of patients ([1]; G3 (N=13)): 3.00
- Best Response SD, percent of patients ([1]; G3 (N=13)): 23.1%
- ORR (overall response rate), percent of patients ([1]; G3 (N=13)): 53.8%
- ORR + clinical benefit, number of patients ([1]; G3 (N=13)): 10.0
- ORR + clinical benefit, percent of patients ([1]; G3 (N=13)): 76.9%
- ORR, number of patients ([1]; G3 (N=13)): 7.00
- Best Response CR, number of patients ([1]; Total (N=38)): 7.00
- Best Response CR, percent of patients ([1]; Total (N=38)): 18.4%
- Best Response PD, number of patients ([1]; Total (N=38)): 4.00
- Best Response PD, percent of patients ([1]; Total (N=38)): 10.5%
- Best Response PR, number of patients ([1]; Total (N=38)): 15.0
- Best Response PR, percent of patients ([1]; Total (N=38)): 39.5%
- Best Response SD, number of patients ([1]; Total (N=38)): 6.00
- Best Response SD, percent of patients ([1]; Total (N=38)): 15.8%
- ORR (overall response rate), percent of patients ([1]; Total (N=38)): 57.9%
- ORR + clinical benefit, number of patients ([1]; Total (N=38)): 28.0
- ORR + clinical benefit, percent of patients ([1]; Total (N=38)): 73.7%
- ORR, number of patients ([1]; Total (N=38)): 22.0
- Discontinuation due to AE (adverse event), number of patients ([2]; G1 (N=9)): 4.00
- Discontinuation due to AE (adverse event), percent of patients ([2]; G1 (N=9)): 44.4%
- Discontinuation due to PD (progressive disease), number of patients ([2]; G1 (N=9)): 1.00
- Discontinuation due to PD (progressive disease), percent of patients ([2]; G1 (N=9)): 11.1%
- Discontinuation due to AE (adverse event), number of patients ([2]; G2 (N=16)): 1.00
- Discontinuation due to AE (adverse event), percent of patients ([2]; G2 (N=16)): 6.3%
- Discontinuation due to PD (progressive disease), number of patients ([2]; G2 (N=16)): 6.00
- Discontinuation due to PD (progressive disease), percent of patients ([2]; G2 (N=16)): 37.5%
- Discontinuation due to AE (adverse event), number of patients ([2]; G2 + G3 (N=29)): 3.00
- Discontinuation due to AE (adverse event), percent of patients ([2]; G2 + G3 (N=29)): 10.3%
- Discontinuation due to PD (progressive disease), number of patients ([2]; G2 + G3 (N=29)): 11.0
- Discontinuation due to PD (progressive disease), percent of patients ([2]; G2 + G3 (N=29)): 37.9%
- Discontinuation due to AE (adverse event), number of patients ([2]; G3 (N=13)): 2.00
- Discontinuation due to AE (adverse event), percent of patients ([2]; G3 (N=13)): 15.4%
- Discontinuation due to PD (progressive disease), number of patients ([2]; G3 (N=13)): 5.00
- Discontinuation due to PD (progressive disease), percent of patients ([2]; G3 (N=13)): 38.5%
- Discontinuation due to AE (adverse event), number of patients ([2]; Total (N=38)): 7.00
- Discontinuation due to AE (adverse event), percent of patients ([2]; Total (N=38)): 18.4%
- Discontinuation due to PD (progressive disease), number of patients ([2]; Total (N=38)): 12.0
- Discontinuation due to PD (progressive disease), percent of patients ([2]; Total (N=38)): 31.6%
- CD10 and CD38 expression on transitional B cells over time ([3]; iNHL patients on cerdulatinib, FIG. 5B representative Group 1 patient): loss of CD10 and CD38 expression
- Frequency of B cells of lymphocytes over time [3, 4]: did not change
- Frequency of CD10 negative (non-transitional) naïve B cells over time [3, 4]: rise and increase
- Frequency of total naïve B cells over time [3, 4]: did not change
- Frequency of transitional (CD10+) B cells of total B cells over time [3, 4]: decreased; also recorded: induces loss of transitional B cell phenotype
- Frequencies of switched memory or double negative B cells over time ([3]; iNHL patients, baseline (C1) vs cycles 2, 3, 6, FIG. 8): no meaningful impact; also recorded: does not impact
- Impact on the measured B cell populations ([3]; iNHL patients, over a period of 6 months on therapy): very little impact
